The source of these data is paper PMC11053489 (Viruses, 2024).

The nature of series [1]: in vitro. To be noted: African green monkey.
The conditions of series [2]: 20 mg/kg, once (dog or cat); Cmax × Fun.
The test system of series [3] is SARS-CoV-2 (hCoV-19/USA-WA1/2020) in Vero CCL-81 cells. Kind of series: microbe, parasite or virus in culture. It is filed as cell-based. To be noted: Severe acute respiratory syndrome coronavirus 2, 48 h.

As for `Cc1cc(C2=NO[C@@](c3cc(Cl)c(Cl)c(Cl)c3)(C(F)(F)F)C2)sc1C(=O)NCC(=O)NCC(F)(F)F` [Lotilaner], the CC50 in series [1] was 44.3 µM. Moreover, the “Cmax (μM) {unbound}” value in series [2] amounted to 0.007 µM. The EC50 – broadly, the concentration giving half of the maximal effect – in series [3] (read-out: Vero CCL-81 Cells EC50) came out at 1.9 µM. The 90% effect concentration (EC90) (usually the point of the concentration-response curve where the effect stands at 90%) in series [3] (read-out: Vero CCL-81 Cells EC90) turned out to be 4.9 µM.
